From publication PMC10765375, “Crystal structure and enzymology of Solanum tuberosum inositol tris/tetrakisphosphate kinase 1 (StITPK1)” (Biochemistry, 2023)
“Also recorded” adds a separate entry of the source. Where two headings read alike, the source gives them in different places.

Columns and labels:
StITPK1 [1] = molecular target: T1, StITPK1 (Solanum tuberosum, UniProt A4H2J0); assay: Fluorescence polarization displacement of 2-FAM-InsP5; assay type: binding; details: Cheng-Prusoff with Kd 48 nM
T1 sequence (A4H2J0 entry or part of it): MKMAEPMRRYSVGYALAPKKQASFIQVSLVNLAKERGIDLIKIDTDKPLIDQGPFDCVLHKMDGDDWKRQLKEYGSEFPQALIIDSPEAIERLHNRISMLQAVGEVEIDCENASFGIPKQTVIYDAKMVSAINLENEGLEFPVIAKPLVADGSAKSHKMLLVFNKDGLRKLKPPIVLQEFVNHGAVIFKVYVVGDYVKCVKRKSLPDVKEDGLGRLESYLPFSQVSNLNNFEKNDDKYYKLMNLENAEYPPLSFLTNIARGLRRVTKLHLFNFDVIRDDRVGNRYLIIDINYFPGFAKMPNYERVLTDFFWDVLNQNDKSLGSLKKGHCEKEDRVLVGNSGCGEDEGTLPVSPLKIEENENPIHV
Description: To determine the relative strengths of binding of different inositol phosphate and inositol pyrophosphate substrates of StITPK1 we undertook fluorescence polarization experiments with 2-FAM-InsP5 [35]. […] A saturation curve for binding of 2-FAM-InsP5 to StITPK1 is shown (Figure S5) and displacement curves are shown for diverse inositol phosphates (Figure 2). The structures of these compounds are shown (Figure S1). […]
Fluorescence polarization (anisotropy)
A curve for binding of 2-FAM-InsP5 to StITPK1 was obtained by incubation of 2 nM 2-FAM-InsP5 [1] with increasing concentration (1-500 nM) of StITPK1 in 20 mM HEPES pH 6.5, 1 mM EDTA, 100 mM NaCl, after. Thereafter, displacement assays were performed by titration of inositol phosphate, inositol pyrophosphate […]
or analog thereof with 2 nM 2-FAM-InsP5 and 50 nM StITPK1. Compounds were tested for displacement in a range of 1 nM - 50 µM. Fluorescence polarization was measured in 384-well, black, low-binding plates, Corning product 3573. Binding and displacement curves (anisotropy) were log transformed and fitted to a 4-parameter logistic (in GraphPad Prism v.6 software (GraphPad Software Inc., San Diego, USA). Fitting of the […]
Substituting the value of Kd for KM in the Cheng-Prusoff equation for competitive inhibition: […]
with concentration of 2-FAM-InsP5 [S], yielded Ki with confidence intervals adjusted by linear approximation.
M.; Jamieson, A. G.; Potter, B. V.; Schwabe, J. W., Insights into the activation mechanism of class I HDAC complexes by inositol phosphates. Nat Commun 2016, 7, 11262. […]

StITPK1 [2] = molecular target: T1, StITPK1; assay: Kinase assay with ATP, HPLC of products; assay type: biochemical; details: for Product formation (3h) / Product formation (12h) / Product formation (separate 12h experiment): 1 mM substrate; for Product formation (3h) / Product formation (12h): 25°C; for kinase substrate status: with ATP, HPLC
Method: (§1) Kinase assays were performed with ATP-regeneration as described for ATP-grasp kinases ITPK1/2 and VIH1/2 [2-3, 27-29], here in 20 mM HEPES pH 6.5, 1 mM MgCl2, 0.5 mM ATP and 1 mM inositol phosphate substrate. The low rate constants for phospho-kinase activity and the low sensitivity of NMR, PAGE and HPLC […]
[2-3, 27-29], here with or without 4 µM protein for 3h or 12h at 25 °C. Competition/inhibition assays were […]
InsP6, and competitor, typically 0.5 mM, incubated with or without 3 µM protein for 2 h at 25 °C . […]
(§2) 0.5 mM inositol pyrophosphate substrate incubated with 4 µM protein at 25 °C . HPLC analysis and detection of inositol phosphates by complexation with ferric ion was performed as described. Peak area data were analysed with the chromatography Jasco ChromNav v.2 software and x,y data were imported into GraphPad Prism v.6 software (GraphPad Software Inc., San Diego, USA) for plotting of chromatograms without additional processing of the data. […]

StITPK1 [3] = molecular target: T1, StITPK1; assay: Competition/inhibition of Ins(1,2,3,4,5)P5 5-phospho-kinase activity, HPLC; assay type: biochemical; details: for % inhibition at 3h, Ins(1,2,3,4,5)P5 substrate: 0.5 mM competing substrate/inhibitor, 1 mM Ins(1,2,3,4,5)P5, 3h experiment; for inhibition of Ins(1,2,3,4,5)P5 phospho-kinase activity: 0.5 mM competitor
AtITPK1 = molecular target: T2, AtITPK1; assay: Kinase assay with ATP, HPLC of products; assay type: biochemical, Arabidopsis thaliana; details: with ATP, HPLC
T2 construct: made in house
Method: as §1
(§3) [2-3, 27-29], here with or without 4 µM protein for 3h or 12h at 25 °C. […]
as §2

StITPK1 [4] = molecular target: T1, StITPK1; assay: Reverse (phosphotransfer to ADP) assay, HPLC; assay type: biochemical; details: 0.5 mM ADP, 12h
Method: The low rate constants for phospho-kinase activity and the low sensitivity of NMR, PAGE and HPLC […]
as §3
as §2, with “(phosphotransfer to ADP) assays were performed with 20 mM HEPES pH 6.5, 1 mM MgCl2, 0.5mM ADP and 0.5” for “0.5”

[5] = Ki for displacement of 2-FAM-InsP5, 2 nM 2-FAM-InsP5, 50 nM StITPK1, pH 6.5
[6] = 2 nM 2-FAM-InsP5, 50 nM StITPK1, pH 6.5, read-out: Ki for displacement of 2-FAM-InsP5

| SMILES | Ki (StITPK1 [1]; [5]) | Product formation (3h) (StITPK1 [2]) | Product formation (12h) (StITPK1 [2]) | kinase substrate status (StITPK1 [2]) | % inhibition at 3h, Ins(1,2,3,4,5)P5 substrate (StITPK1 [3]) | inhibition of Ins(1,2,3,4,5)P5 phospho-kinase activity (StITPK1 [3]) | kinase substrate status (AtITPK1) | Ki (StITPK1 [1]; [6]) | Product formation (separate 12h experiment) (StITPK1 [2]) | substrate for phosphotransfer to ADP (StITPK1 [4]) |
| --- | --- | --- | --- | --- | --- | --- | --- | --- | --- | --- |
| O=C(NC1C(OP(=O)(O)O)C(OP(=O)(O)O)C(OP(=O)(O)O)C(OP(=O)(O)O)C1OP(=O)(O)O)C(F)(F)P(=O)(O)O (stereo not drawn) [5-PCF2AM-InsP5, 5-deoxy-5-(phosphonodifluoroacetamido)-myo-inositol 1,2,3,4,6-pentakisphosphate] | 106 nM | 0 μM/μM protein | 0 μM/μM protein | not a substrate | 67% |  |  |  |  |  |
| O=P(O)(O)CP(=O)(O)O[C@@H]1[C@H](OP(=O)(O)O)[C@H](OP(=O)(O)O)[C@@H](OP(=O)(O)O)[C@H](OP(=O)(O)O)[C@H]1OP(=O)(O)O [1-PCP-InsP5, myo-inositol 2,3,4,5,6-penta-phosphate-1-methylenediphosphonate] |  | 22 μM/μM protein | 145 μM/μM protein | better substrates | 61% | potent inhibitors | better substrates |  |  |  |
| O=P(O)(O)CP(=O)(O)OC1C(OP(=O)(O)O)C(OP(=O)(O)O)C(OP(=O)(O)O)C(OP(=O)(O)O)C1OP(=O)(O)O (stereo not drawn) [5-PCP-InsP5, myo-inositol 1,2,3,4,6-penta-phosphate-5-methylenediphosphonate] |  | 0 μM/μM protein | 0 μM/μM protein |  | 60% |  |  | 101 nM |  |  |
| O=P(O)(O)O[C@@H]1[C@@H](OP(=O)(O)O)[C@H](OP(=O)(O)O)[C@@H](O)[C@@H](O)[C@H]1OP(=O)(O)O [Ins(1,4,5,6)P4, 1D-myo-inositol 1,4,5,6-tetrakisphosphate] |  |  |  |  |  |  |  | 2560 nM | 41 μM/μM protein |  |
| O=C(O)CP(=O)(O)O[C@H]1[C@H](OP(=O)(O)O)[C@@H](OP(=O)(O)O)[C@@H](OP(=O)(O)O)[C@@H](OP(=O)(O)O)[C@@H]1OP(=O)(O)O [5-PA-InsP5, myo-inositol 1,2,3,4,6-penta-phosphate-5-phosphonoacetate] |  | 50 μM/μM protein | 236 μM/μM protein | strongest phospho-kinase substrate after myo-InsP6 | 44% |  | weak substrate |  |  |  |
| O=P(O)(O)OC1C(OP(=O)(O)O)C(OP(=O)(O)O)C(OP(=O)(O)O)C(OP(=O)(O)O)C1OP(=O)(O)O (stereo not drawn) [scyllo-InsP6, scyllo-inositol 1,2,3,4,5,6-hexakisphosphate] | 423 nM |  | 0 μM/μM protein | failure of StITPK1 to phosphorylate |  |  |  |  | 0 μM/μM protein |  |
| O=P(O)(O)O[C@@H]1[C@@H](OP(=O)(O)O)[C@H](OP(=O)(O)OP(=O)(O)O)[C@@H](OP(=O)(O)O)[C@H](OP(=O)(O)OP(=O)(O)O)[C@@H]1OP(=O)(O)O [1,5-[PP]2-InsP4, 1D-1,5-bis-diphospho-myo-inositol 2,3,4,6-tetrakisphosphate] |  |  |  |  |  |  |  |  |  | both enantiomers are substrates |
| O=P(O)(O)OC1[C@@H](OP(=O)(O)O)[C@H](OP(=O)(O)O)C(OP(=O)(O)OP(=O)(O)O)[C@@H](OP(=O)(O)O)[C@H]1OP(=O)(O)O (stereo partly drawn) [3-PP-InsP5, 1D-3-diphospho-myo-inositol 1,2,4,5,6-pentakisphosphate] |  | 35 μM/μM protein | 193 μM/μM protein | phospho-kinase substrates; also recorded: a stronger substrate than 1-PP-InsP5 | 71% |  | a stronger substrate than 1-PP-InsP5 |  |  |  |
| O=P(O)(O)O[C@@H]1[C@H](OP(=O)(O)O)[C@H](OP(=O)(O)O)[C@@H](O)[C@H](OP(=O)(O)O)[C@H]1OP(=O)(O)O [Ins(1,2,3,5,6)P5, 1D-myo-inositol 1,2,3,5,6-pentakisphosphate] |  |  |  | lacking activity |  |  |  | 288 nM | 0 μM/μM protein |  |
| O=P(O)(O)OC1C(OP(=O)(O)O)C(OP(=O)(O)O)C(OP(=O)(O)O)C(OP(=O)(O)O)C1OP(=O)(O)O [D-chiro-InsP6, 1-D-chiro-inositol 1,2,3,4,5,6-hexakisphosphate] | 154 nM |  | 0 μM/μM protein | not a substrate |  |  |  |  | 0 μM/μM protein |  |
| O=P(O)(O)OC1C(OP(=O)(O)O)C(OP(=O)(O)O)C(OP(=O)(O)O)C(OP(=O)(O)O)C1OP(=O)(O)O (stereo not drawn) [neo-InsP6, neo-inositol 1,2,3,4,5,6-hexakisphosphate] | 111 nM |  | 0 μM/μM protein | failure of StITPK1 to phosphorylate |  |  |  |  | 0 μM/μM protein |  |
| O=P(O)(O)CP(=O)(O)OC1C(OP(=O)(O)O)C(OP(=O)(O)O)C(OP(=O)(O)O)C(OP(=O)(O)CP(=O)(O)O)C1OP(=O)(O)O (stereo not drawn) [1,5-[PCP]2-InsP4] |  |  |  |  |  |  |  |  |  | neither |
| O=P(O)(O)CP(=O)(O)OC1C(OP(=O)(O)O)C(OP(=O)(O)O)C(OP(=O)(O)O)C(OP(=O)(O)O)C1OP(=O)(O)O (stereo not drawn) [3-PCP-InsP5, myo-inositol 1,2,4,5,6-penta-phosphate-3-methylenediphosphonate] |  | 41 μM/μM protein | 232 μM/μM protein | better substrates | 78% | potent inhibitors | better substrates |  |  |  |
| O=P(O)(O)O[C@@H]1[C@@H](OP(=O)(O)O)[C@H](OP(=O)(O)O)[C@@H](O)[C@H](OP(=O)(O)O)[C@@H]1OP(=O)(O)O [Ins(1,2,3,4,5)P5, 1D-myo-inositol 1,2,3,4,5-pentakisphosphate] |  |  |  | showing phospho-kinase activity |  |  |  | 431 nM | 257 μM/μM protein |  |
| O=C(CP(=O)(O)O)NC1C(OP(=O)(O)O)C(OP(=O)(O)O)C(OP(=O)(O)O)C(OP(=O)(O)O)C1OP(=O)(O)O (stereo not drawn) [5-PCH2AM-InsP5, 5-deoxy-5-(phosphonoacetamido)-myo-inositol 1,2,3,4,6-pentakisphosphate] | 889 nM | 0 μM/μM protein | 25 μM/μM protein | very weak substrates | 43% |  |  |  |  |  |
| O=P(O)(O)O[C@@H]1[C@H](OP(=O)(O)O)[C@H](OP(=O)(O)OP(=O)(O)O)[C@@H](OP(=O)(O)O)[C@H](OP(=O)(O)OP(=O)(O)O)[C@H]1OP(=O)(O)O [3,5-[PP]2-InsP4, 1D-3,5-bis-diphospho-myo-inositol 1,2,4,6-tetrakisphosphate] |  |  |  |  |  |  |  |  |  | both enantiomers are substrates |
| O=P(O)(O)O[C@@H]1[C@@H](OP(=O)(O)O)[C@@H](OP(=O)(O)O)[C@@H](OP(=O)(O)OP(=O)(O)O)[C@H](OP(=O)(O)O)[C@H]1OP(=O)(O)O [1-PP-InsP5, 1D-1-diphospho-myo-inositol 2,3,4,5,6-pentakisphosphate] |  | 9 μM/μM protein | 75 μM/μM protein | the weaker substrate | 76% |  |  |  |  |  |
